Measured values published in patent publication US20260092085A1, “SYNTHETIC TRIPLEX PEPTIDE NUCLEIC ACID-BASED INHIBITORS FOR CANCER THERAPY” (University of Connecticut, priority 2022, published 2026).
{RR} = two arginine residues at the PNA terminus

Experiments:
SUDHL-2 cells = test: Cell viability by trypan blue assay, SUDHL-2; type: cell-based
Experimental: Cell viability was performed using trypan blue-based assay (n=3 technical triplicate), data represented as mean±(SEM), * represents the statistical analysis were performed relative to Scr-γtcPNA-155 and ♦ represent analysis performed relative to PNA-155. *p<0.05, **p<0.01, ***p<0.001 and ****p<0.0001, ♦p<0.05, ♦♦p<0.01, unpaired two-tailed t-test was used for statistical analysis. The experiment was repeated three times and in triplicate.
Cell viability was performed using trypan blue-based assay (n=3), data represented as mean±standard error mean (SEM), *p<0.05, **p<0.01. Unpaired two-tailed t-test was used for statistical analysis.
Cell viability was performed using trypan blue-based assay (n=3), data represented as mean±standard error mean (SEM).
Cell viability by trypan blue assay: Diffused large B cell lymphoma (DLBCL) cell lines like SUDHL-2 (ATCC® CRL-2956™) and SUDHL-5 (ATCC® CRL-2958™) cells were purchased from ATCC (Virginia, USA). The cells were regularly tested for Mycoplasma contamination using MycoAlert™ Mycoplasma detection kit (Lonza). All the cells used in the experiment were passaged less than 8 times. 10,000 U2932, SUDHL-5, or SUDHL-2 cells were plated in a 96 well plate. The cells were treated with different doses (500 nM, 1000 nM, 2000 nM and 4000 nM) of PNA-155, gamma tcPNA-155 or Scr-γtcPNA-155 for 48 hrs in an incubator (37° C. and 5% CO2). The dead cells were marked with trypan blue. Further counting was performed using an automated cell counter (Bio-rad).

miR-155 [1] = test: Gel shift binding assay (PAGE, SYBR Gold)
Experimental: (1D) Dose-dependent gel shift binding assay of target miR-155 ([…]) with PNA-155 and γtcPNA-155 at indicated concentrations. The samples were prepared in the physiological buffer (2 mM MgCl2, 150 mM KCl, 10 mM NaPi) and incubated for 24 hours at physiological temperature (37° C.) followed by PAGE separation and visualization of bands by SYBr® Gold staining. […] (iii) γtcPNA-155 binding with the target miR-155 by Watson Crick and Hoogsteen base pairing. (iv) γtcPNA-155 binding with the miR-155 by Watson-Crick base pairing. (v) Clamp segment of γtcPNA-155 binding with the target miR-155 by Hoogsteen base pairing.
Gel shift assay: Different concentration of PNA-155 or gamma tcPNA-155 were made in physiological buffer (2 mM MgCl2, 150 mM KCl, 10 mM NaPi) and incubated overnight at 37° C. with 1 μM DNA-155 target. The samples were run through 8% Polyacrylamide gel electrophoresis (PAGE) gel in IX TBE buffer at 120 volts for 35 mins. The gel was stained with SyBr Gold for two mins and visualized using Gel Doc™ EZ Imager (Bio-rad). […]
Next, we evaluated the binding affinity of γtcPNA-155 and PNA-155 with the miR-155 target by polyacrylamide gel electrophoresis (PAGE) based protocols (FIG. 1D). We incubated PNA-155 and γtcPNA-155 with miR-155 at indicated concentrations in physiological buffer and temperature and assessed the binding by PAGE followed by SYBR gold staining. […]

miR-155 [2] = test: miR-155 gene expression in SUDHL-2 xenograft tumors; set-up: species or system NSG mice; conditions: SUDHL-2 xenograft after in vivo treatment
Experimental: Data normalized with average control U6 (n=4) and represented as mean±standard error mean. Unpaired t test was used for statistical analysis. Further statistical analysis was performed relative to Scr-γtcPNA-155. **p<0.01, ***p<0.001.
Further, we corroborated our results in the SUDHL-2 derived xenograft mouse model. We injected the SUDHL-2 cells in the right and left flank of mice. After 14-21 days, when the tumor volume reached 100-200 mm3, the mice were randomized into three treatment groups based on uniform tumor volume distribution in each group. […] (FIG. 27)

## γtcPNA-155: serine gamma tail-clamp anti-miR-155 PNA, RR-TJJJJ-OOO-ACCCCTATCACGATTAGCATTAA-RR, SEQ ID NO: 3 (all peptide nucleic acid (PNA); serine gamma PNA, tail-clamp TJJJJ via linkers, Arg-Arg at both ends)
SUDHL-2 cells; SUDHL-2, 500 nM, compared to PNA-155 treated group
  reduction in cell viability at 500 nM: significant reduction in cell viability
SUDHL-2 cells; SUDHL-2, 4UM, 48 hours
  decrease in cell viability: ~80%
miR-155 [1]
  binding affinity with miR-155 target (comparison): stronger binding affinity compared to regular PNA-155

## PNA-155: conventional full-length regular PNA (23mer), RR-ACCCCTATCACGATTAGCATTAA-RR, SEQ ID NO: 1 (all peptide nucleic acid (PNA), 5' {RR}, 3' {RR}) [reference compound]
miR-155 [2]
  miR-155 expression level in tumors: significantly reduces miR-155 expression level
